US20130029981A1, “COMPOUNDS, COMPOSITIONS, AND METHODS FOR CONTROLLING BIOFILMS” (Katholieke Universiteit Leuven, priority 2009, published 2013)
Like-named read-outs stand apart in the source and are kept apart here.

Tests used:
S. Typhimurium ATCC14028 = experiment: Static peg assay for prevention of biofilm formation (Calgary device, crystal violet); format: cell-based, Salmonella Typhimurium
In short: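 Calgary 96-peg device, ca. 10^6 cells of ATCC14028 per well in TSB 1/20 for 24 h at 25° C (or 48 h at 16° C, medium and compound renewed at 24 h), or in CFA broth for 24 h at 37° C, static, with two-fold compound dilutions. Crystal violet stain, acetic acid extraction, OD570. IC50 from 2–3 independent experiments.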

[1] = test system: Pseudomonas aeruginosa PA14; experiment: as above; format: cell-based
Description: (§1) Evaluation of the biofilm inhibitory activity of some substituted 2-amino-1H-imidazoles of the invention was carried out by growing up biofilms of S. Typhimurium ATCC14028 or SL1344 or Pseudomonas aeruginosa PA14 in the presence of different concentrations (1/2 dilution series) of biofilm inhibitors, by using the Calgary biofilm device. After an incubation period of 24 hours at 25° C. or 37° C. or 48 hours at 16° C. the biofilms were visualized by crystal violet staining. In the next step the stain was extracted from the biofilm with 30% acetic acid. The absorbance of the resolubilized stain at 570 nm is a measure of the amount of biofilm formed.
The device used for Pseudomonas aeruginosa biofilm formation is the same platform carrying polystyrene pegs as described above for Salmonella Typhimurium.
Two-fold serial dilutions of the compounds in 100 μl liquid broth per well were prepared in the microtiter plate. Subsequently, an overnight culture of P. aeruginosa PA14 (grown up in TSB medium) was diluted 1:100 into liquid broth and 100 μl was added to each well of the microtiter plates, resulting in a total amount of 200 μl medium per well. The pegged lid was placed on the microtiter plate and the plate was incubated for 24 hours at 25° C., 30° C. or 37° C. without shaking. During this incubation period biofilms were formed on the surface of the pegs. The liquid broth used for the tests at 25° C. was TSB 1/20. The tests at 37° C. were performed in CFA and/or LBNS broth. During incubation at 30° C. and 37° C. the plates were placed in a humidity controlled container to prevent evaporation of the growth medium. Quantification of biofilm formation was performed similarly as described previously for the S. Typhimurium biofilm assays.
as §1, with “imidazo[1,2-a]pyrimidinium bromide salts” for “2-amino-1H-imidazoles”
as §1, with “substituted imidazo[1,2-a]-pyrimidinium bromide and perchlorate salts produced according to examples 3 and 5” for “substituted 2-amino-1H-imidazoles of the invention”, “C.” for “C. or 37° C. or 48 hours at 16° C.”, “nm was taken as” for “nm is”

[2] = 25° C., Table 16, read-out: S. Typhimurium IC50 (biofilm formation)
[3] = 25° C., Table 16, read-out: P. aeruginosa IC50 (biofilm formation)
[4] = 25° C., 24 hours, Table 15, read-out: (1) IC50 (biofilm inhibition)
[5] = 25° C., 24 hours, Table 15, read-out: (2) IC50 (biofilm inhibition)
[6] = 25° C., Table 17, read-out: S. Typhimurium IC50 (biofilm formation)
[7] = 25° C., Table 17, read-out: P. aeruginosa IC50 (biofilm formation)
[8] = 25° C., Table 18, read-out: S. Typhimurium IC50 (biofilm formation)
[9] = 25° C., Table 18, read-out: P. aeruginosa IC50 (biofilm formation)
[10] = S. Typhimurium ATCC 14028, 25° C., read-out: S. Typhimurium IC50 (biofilm formation)
[11] = P. aeruginosa PA14, 25° C., read-out: P. aeruginosa IC50 (biofilm formation)

| SMILES | IC50 (S. Typhimurium ATCC14028; [4]) [µM] | IC50 [1, 5] [µM] | IC50 (S. Typhimurium ATCC14028; [10]) [µM] | IC50 [1, 11] [µM] | other results |
| --- | --- | --- | --- | --- | --- |
| CCCCCCCC[n+]1c(-c2ccc(SC)cc2)cn2cccnc21.[O-][Cl+3]([O-])([O-])[O-] [2-(4-Methylthiophenyl)-1-octylimidazo[1,2-a]pyrimidin-1-ium perchlorate] |  |  |  |  | IC50 (S. Typhimurium ATCC14028; Salmonella enterica, 24 h, read-out: (1) IC50 (biofilm inhibition)): 20.7 µM; IC50 ([1]; Pseudomonas aeruginosa, PA14, 24 h, read-out: (2) IC50 (biofilm inhibition)): 9.29 µM |
| CCCCN1c2nccc[n+]2CC1(O)c1ccc([N+](=O)[O-])cc1 (stereo not shown) [Compound 31] |  |  |  |  | IC50 (S. Typhimurium ATCC14028; [2]): 293 µM; IC50 [1, 3]: 145 µM |
| CC(C)CN1c2nccc[n+]2CC1(O)c1ccc([N+](=O)[O-])cc1 (stereo not shown) [Compound 32] |  |  |  |  | IC50 (S. Typhimurium ATCC14028; [2]): 322 µM; IC50 [1, 3]: 192 µM |
| CC(C)(C)N1c2nccc[n+]2CC1(O)c1ccc([N+](=O)[O-])cc1 (stereo not shown) [Compound 33] |  |  |  |  | IC50 (S. Typhimurium ATCC14028; [2]): 211 µM; IC50 [1, 3]: 41.5 µM |
| CCCCCCCCN1c2nccc[n+]2CC1(O)c1ccc([N+](=O)[O-])cc1 (stereo not shown) [Compound 35] | 6.62 | 7.65 |  |  | IC50 (S. Typhimurium ATCC14028; [2]): 6.6 µM; IC50 [1, 3]: 19.7 µM |
| CCCCCCCCCCN1c2nccc[n+]2CC1(O)c1ccc([N+](=O)[O-])cc1 (stereo not shown) [Compound 36] | 9.95 |  |  |  | IC50 (S. Typhimurium ATCC14028; [2]): 9.9 µM; IC50 [1, 3]: 22.3 µM |
| CCCCCCCCN1c2nccc[n+]2CC1(O)c1ccc(F)cc1 (stereo not shown) [Compound 39] | 7.58 | 7.12 |  |  | IC50 (S. Typhimurium ATCC14028; [2]): 7.6 µM; IC50 [1, 3]: 108 µM |
| CCCCCCCCN1c2nccc[n+]2CC1(O)c1ccc(OC)cc1 (stereo not shown) [Compound 46] | 10.5 | 13.6 |  |  | IC50 (S. Typhimurium ATCC14028; [2]): 10.5 µM; IC50 [1, 3]: 90.2 µM |
| CCCCCCCCN1c2nccc[n+]2CC1(O)c1ccc(Cl)c(Cl)c1 (stereo not shown) [Compound 49] | 7.09 | ~12.3 |  |  | IC50 (S. Typhimurium ATCC14028; [2]): 7.1 µM; IC50 [1, 3]: 11.6 µM |
| CCCCCCCCN1c2nccc[n+]2CC1(O)c1ccc(SC)cc1 (stereo not shown) [Compound 51] | ~13.2 | 29 |  |  | IC50 (S. Typhimurium ATCC14028; [6]): ~13.2 µM; IC50 [1, 7]: 36.5 µM |
| CCCCCCCCN1c2nccc[n+]2C[C@@]1(O)c1cccc2ccccc12 [Compound 52] |  |  |  |  | IC50 (S. Typhimurium ATCC14028; Salmonella enterica, 25° C., 24 hours, Table 15, read-out: (1) IC50 (biofilm inhibition)): 14.7 µM; IC50 (S. Typhimurium ATCC14028; Salmonella enterica, 25° C., Table 17, read-out: S. Typhimurium IC50 (biofilm formation)): 14.7 µM; IC50 ([1]; Pseudomonas aeruginosa, PA14, 25° C., Table 17, read-out: P. aeruginosa IC50 (biofilm formation)): 15.1 µM; IC50 ([1]; Pseudomonas aeruginosa, PA14, 24 h, 25° C., 24 hours, Table 15, read-out: (2) IC50 (biofilm inhibition)): 16.7 µM |
| CCCCCCCCN1c2nccc[n+]2CC1(O)c1ccc(-c2ccc([N+](=O)[O-])cc2)cc1 (stereo not shown) [Compound 53] | 31 | 119 |  |  | IC50 (S. Typhimurium ATCC14028; [6]): 31 µM; IC50 [1, 7]: 215 µM |
| CCCCCCCCN1c2nccc[n+]2CC1(O)c1ccc(S(C)(=O)=O)cc1 (stereo not shown) [Compound 54] | 60.3 | 11.5 |  |  | IC50 (S. Typhimurium ATCC14028; [6]): 60.3 µM; IC50 [1, 7]: 99.9 µM |
| CCCCCCCCN1c2nccc[n+]2CC1(O)c1ccc(-c2ccc(-c3ccccc3)cc2)cc1 (stereo not shown) [Compound 55] | ~52.8 | 26.8 |  |  | IC50 (S. Typhimurium ATCC14028; [6]): ~52.8 µM; IC50 [1, 7]: 336 µM |
| CCCCCCCCN1c2nccc[n+]2CC1(O)c1cccc(Br)c1 (stereo not shown) [Compound 56] | 7.13 | ~13.2 |  |  | IC50 (S. Typhimurium ATCC14028; [6]): 7.1 µM; IC50 [1, 7]: 29 µM |
| OC1(c2ccccc2)C[n+]2cccnc2N1C1CCC1 (stereo not shown) [Compound 57] |  |  |  |  | IC50 (S. Typhimurium ATCC14028; [8]): 493 µM; IC50 [1, 9]: > 400 µM |
| OC1(c2ccccc2)C[n+]2cccnc2N1C1CCCCC1 (stereo not shown) [Compound 58] |  |  |  |  | IC50 (S. Typhimurium ATCC14028; [8]): 139 µM; IC50 [1, 9]: 87 µM |
| OC1(c2ccccc2)C[n+]2cccnc2N1C1CCCCCC1 (stereo not shown) [Compound 59] | 84.2 | 5.81 |  |  | IC50 (S. Typhimurium ATCC14028; [8]): 84.2 µM; IC50 [1, 9]: 250 µM |
| OC1(c2ccccc2)C[n+]2cccnc2N1C1CCCCCCC1 (stereo not shown) [Compound 60] | 58.4 | 4.63 |  |  | IC50 (S. Typhimurium ATCC14028; [8]): 58.4 µM; IC50 [1, 9]: 176 µM |

| SMILES | IC50 (S. Typhimurium ATCC14028; [4]) [µM] | IC50 [1, 5] [µM] | IC50 (S. Typhimurium ATCC14028; [10]) [µM] | IC50 [1, 11] [µM] | other results |
| --- | --- | --- | --- | --- | --- |
| OC1(c2ccc(Cl)cc2)C[n+]2cccnc2N1C1CCC1 (stereo not shown) [Compound 62] |  |  |  |  | IC50 (S. Typhimurium ATCC14028; [8]): 121 µM; IC50 [1, 9]: 372 µM |
| OC1(c2ccc(Cl)cc2)C[n+]2cccnc2N1C1CCCC1 (stereo not shown) [Compound 63] |  |  |  |  | IC50 (S. Typhimurium ATCC14028; [8]): 41.8 µM; IC50 [1, 9]: 163 µM |
| OC1(c2ccc(Cl)cc2)C[n+]2cccnc2N1C1CCCCCC1 (stereo not shown) [Compound 65] | 27.9 | 63.8 |  |  | IC50 (S. Typhimurium ATCC14028; [8]): 27.9 µM; IC50 [1, 9]: 76.2 µM |
| OC1(c2ccc(Cl)cc2)C[n+]2cccnc2N1C1CCCCCCC1 (stereo not shown) [Compound 66] | 12.6 | 15.6 |  |  | IC50 (S. Typhimurium ATCC14028; [8]): 12.6 µM; IC50 [1, 9]: 22.7 µM |
| OC1(c2ccc(Cl)cc2)C[n+]2cccnc2N1C1CCCCCCCCCCC1 (stereo not shown) [Compound 67] |  |  |  |  | IC50 (S. Typhimurium ATCC14028; [8]): 5.6 µM; IC50 [1, 9]: 6.8 µM |
| Nc1nc(-c2ccccc2)c[nH]1 [Compound 81] |  |  | 130 | 72.6 |  |
| CC(C)Nc1nc(-c2ccccc2)c[nH]1 [Compound 82] |  |  | > 800 | 261 |  |
| CCCCNc1nc(-c2ccccc2)c[nH]1 [Compound 83] |  |  | 25.3 | 31.8 |  |
| CC(C)CNc1nc(-c2ccccc2)c[nH]1 [Compound 84] |  |  | 4.9 | 1.2 |  |
| Nc1nc(-c2ccc(Cl)cc2)c[nH]1 [Compound 85] |  |  | 16 | 3.5 |  |
| CC(C)CNc1nc(-c2ccc(Cl)cc2)c[nH]1 [Compound 86] |  |  | 2 | 0.9 |  |
| CCCCCNc1nc(-c2ccc(Cl)cc2)c[nH]1 [Compound 87] |  |  | > 400 | ~6.35 |  |
| CCCCCCCCNc1nc(-c2ccc(Cl)cc2)c[nH]1 [Compound 88] |  |  | > 400 | ~1.6 |  |
| CNc1nc(-c2ccc([N+](=O)[O-])cc2)c[nH]1 [Compound 91] |  |  | 170 | 56.1 |  |
| CCNc1ncc(-c2ccc([N+](=O)[O-])cc2)[nH]1 [Compound 92] |  |  | 171 | 104 |  |
| CCCCNc1ncc(-c2ccc([N+](=O)[O-])cc2)[nH]1 [Compound 93] |  |  | 702 | > 800 |  |
| CC(C)CNc1ncc(-c2ccc([N+](=O)[O-])cc2)[nH]1 [Compound 94] |  |  | 3.8 | 22.9 |  |
| CCCCCCCCNc1ncc(-c2ccc([N+](=O)[O-])cc2)[nH]1 [Compound 95] |  |  | 10.9 | ~25 |  |
